Measurements published in US20240165244A1 (Prelude Therapeutics Incorporated, priority 2022, published 2024).

What was measured:
SMARCA2 = biological target: T1, SMARCA2 (Homo sapiens, UniProt P51531); test: SMARCA2 HiBiT degradation assay in HeLa cells; type: cell-based; settings: 18 hours, highest concentration 10 μM
T1 construct: SMARCA2-HiBiT knock-in Hela monoclonal cell (CS302366); host or cells: HeLa monoclonal cells with heterozygous HiBiT knock-in at the endogenous SMARCA2 locus
Method in brief: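 HeLa cells carrying a heterozygous C-terminal HiBiT knock-in on SMARCA2 were seeded at 2500 cells/well. They were treated with 3-fold dilution series, top concentration 10 μM, for 18 h at 37 °C. Remaining SMARCA2-HiBiT was measured by Nano-Glo HiBiT lytic luminescence after 30-60 min at RT, followed by curve fitting.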

SMARCA4 = biological target: T2, SMARCA4 (Homo sapiens, UniProt P51532); test: SMARCA4 HiBiT degradation assay in HeLa cells; type: cell-based; settings: 18 hours, highest concentration 10 μM
T2 construct: SMARCA4-HiBiT knock-in Hela monoclonal cell (CS3023226); host or cells: HeLa monoclonal cells with heterozygous HiBiT knock-in at the endogenous SMARCA4 locus
T2 sequence (P51532 whole entry): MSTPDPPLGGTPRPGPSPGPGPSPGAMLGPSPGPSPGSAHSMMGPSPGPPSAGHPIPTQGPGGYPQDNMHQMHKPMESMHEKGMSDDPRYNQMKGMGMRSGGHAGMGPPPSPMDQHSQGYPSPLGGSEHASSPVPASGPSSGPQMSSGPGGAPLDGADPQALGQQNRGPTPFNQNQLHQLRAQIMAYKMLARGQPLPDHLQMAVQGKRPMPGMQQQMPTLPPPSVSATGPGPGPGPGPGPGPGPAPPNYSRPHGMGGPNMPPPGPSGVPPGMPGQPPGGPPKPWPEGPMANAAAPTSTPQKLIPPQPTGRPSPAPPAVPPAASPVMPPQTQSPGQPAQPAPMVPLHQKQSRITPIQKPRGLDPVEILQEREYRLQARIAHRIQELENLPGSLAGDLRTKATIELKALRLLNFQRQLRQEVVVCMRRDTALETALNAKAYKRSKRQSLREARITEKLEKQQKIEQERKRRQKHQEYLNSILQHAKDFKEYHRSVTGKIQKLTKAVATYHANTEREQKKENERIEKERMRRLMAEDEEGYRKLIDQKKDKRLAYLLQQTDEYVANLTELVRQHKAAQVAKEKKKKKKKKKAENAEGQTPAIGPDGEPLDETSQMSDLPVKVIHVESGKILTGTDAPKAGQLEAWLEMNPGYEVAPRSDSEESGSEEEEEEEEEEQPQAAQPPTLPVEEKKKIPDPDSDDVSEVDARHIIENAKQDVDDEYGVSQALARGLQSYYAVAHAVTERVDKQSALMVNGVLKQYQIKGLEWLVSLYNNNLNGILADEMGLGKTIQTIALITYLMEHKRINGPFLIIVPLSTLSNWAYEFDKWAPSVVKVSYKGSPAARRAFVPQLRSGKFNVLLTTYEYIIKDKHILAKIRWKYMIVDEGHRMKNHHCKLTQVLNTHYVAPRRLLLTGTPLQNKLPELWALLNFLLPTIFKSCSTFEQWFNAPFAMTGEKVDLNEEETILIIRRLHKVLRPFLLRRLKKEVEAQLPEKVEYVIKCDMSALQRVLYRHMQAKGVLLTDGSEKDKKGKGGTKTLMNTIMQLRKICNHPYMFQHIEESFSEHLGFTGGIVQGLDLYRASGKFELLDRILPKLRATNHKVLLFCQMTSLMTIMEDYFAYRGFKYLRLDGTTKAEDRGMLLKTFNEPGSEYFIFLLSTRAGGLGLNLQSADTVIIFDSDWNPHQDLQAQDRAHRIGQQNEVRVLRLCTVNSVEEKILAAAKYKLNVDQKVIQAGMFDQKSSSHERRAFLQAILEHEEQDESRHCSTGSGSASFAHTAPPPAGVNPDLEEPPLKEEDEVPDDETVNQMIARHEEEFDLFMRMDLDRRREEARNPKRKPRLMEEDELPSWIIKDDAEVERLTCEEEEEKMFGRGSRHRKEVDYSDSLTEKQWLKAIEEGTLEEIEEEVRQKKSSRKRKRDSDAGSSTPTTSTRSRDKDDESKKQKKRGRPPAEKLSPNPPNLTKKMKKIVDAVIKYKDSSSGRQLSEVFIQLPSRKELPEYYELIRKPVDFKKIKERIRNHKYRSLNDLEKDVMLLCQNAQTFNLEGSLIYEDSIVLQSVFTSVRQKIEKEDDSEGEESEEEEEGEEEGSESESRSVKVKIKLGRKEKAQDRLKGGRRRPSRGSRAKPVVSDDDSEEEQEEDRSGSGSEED
Method in brief: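 HeLa monoclonal cells with HiBiT knocked into SMARCA4 were seeded at 2500 cells/well, dosed with compound and incubated 18 hours at 37° C. HiBiT signal reported remaining SMARCA4 protein, and values came from curve fitting.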

T1 sequence (P51531 whole entry): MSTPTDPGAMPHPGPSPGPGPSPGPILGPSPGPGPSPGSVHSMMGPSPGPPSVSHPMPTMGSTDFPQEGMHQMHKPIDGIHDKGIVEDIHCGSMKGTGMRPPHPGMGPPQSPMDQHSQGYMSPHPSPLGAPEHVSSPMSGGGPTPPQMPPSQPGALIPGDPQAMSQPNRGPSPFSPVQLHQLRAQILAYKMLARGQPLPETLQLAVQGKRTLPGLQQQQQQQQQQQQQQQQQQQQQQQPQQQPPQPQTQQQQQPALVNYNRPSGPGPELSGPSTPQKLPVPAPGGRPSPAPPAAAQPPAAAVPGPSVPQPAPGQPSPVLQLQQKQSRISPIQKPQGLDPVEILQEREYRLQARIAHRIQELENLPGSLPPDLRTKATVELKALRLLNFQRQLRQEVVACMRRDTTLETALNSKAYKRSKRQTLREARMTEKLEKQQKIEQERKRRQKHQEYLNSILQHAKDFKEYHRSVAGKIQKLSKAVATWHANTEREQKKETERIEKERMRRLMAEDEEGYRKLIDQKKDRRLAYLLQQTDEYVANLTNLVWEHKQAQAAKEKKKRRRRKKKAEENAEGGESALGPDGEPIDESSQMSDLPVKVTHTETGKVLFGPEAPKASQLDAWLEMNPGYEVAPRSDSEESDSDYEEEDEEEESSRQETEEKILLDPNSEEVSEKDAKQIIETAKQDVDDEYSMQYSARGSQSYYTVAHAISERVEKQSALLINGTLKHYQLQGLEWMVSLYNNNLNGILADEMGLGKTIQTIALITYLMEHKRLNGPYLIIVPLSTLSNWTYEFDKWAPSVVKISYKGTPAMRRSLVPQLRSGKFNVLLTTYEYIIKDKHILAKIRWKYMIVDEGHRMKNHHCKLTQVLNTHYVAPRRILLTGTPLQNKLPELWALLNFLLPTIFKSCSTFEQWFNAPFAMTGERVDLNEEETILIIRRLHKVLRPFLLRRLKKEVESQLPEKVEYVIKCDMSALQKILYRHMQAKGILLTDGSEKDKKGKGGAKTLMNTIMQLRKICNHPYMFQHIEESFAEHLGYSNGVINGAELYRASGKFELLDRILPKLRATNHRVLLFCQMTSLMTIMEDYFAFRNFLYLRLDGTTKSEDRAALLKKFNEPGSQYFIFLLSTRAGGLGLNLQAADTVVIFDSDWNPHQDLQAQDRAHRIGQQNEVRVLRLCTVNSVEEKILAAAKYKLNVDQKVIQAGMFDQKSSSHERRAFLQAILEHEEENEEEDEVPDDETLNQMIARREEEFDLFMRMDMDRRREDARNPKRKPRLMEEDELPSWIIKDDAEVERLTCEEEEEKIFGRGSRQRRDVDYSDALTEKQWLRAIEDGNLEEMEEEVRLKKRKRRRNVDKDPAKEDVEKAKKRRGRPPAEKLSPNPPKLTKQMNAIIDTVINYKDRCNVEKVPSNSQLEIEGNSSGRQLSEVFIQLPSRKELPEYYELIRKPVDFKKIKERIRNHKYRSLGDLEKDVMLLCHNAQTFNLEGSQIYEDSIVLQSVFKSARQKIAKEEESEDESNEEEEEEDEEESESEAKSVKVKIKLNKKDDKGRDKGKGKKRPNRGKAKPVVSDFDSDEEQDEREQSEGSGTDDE

| DC50 (SMARCA2) | Dmax (SMARCA2) | DC50 (SMARCA4) | Dmax (SMARCA4) | Compound |
| --- | --- | --- | --- | --- |
| < 0.1 µM | > 75% | < 0.1 µM | > 75% | CC[C@@]12CNc3nnc(-c4cc(F)cc(F)c4O)cc3N1C[C@H](Oc1ccc(CN3CCN(c4ccc5c(c4)C(=O)N(C4CCC(=O)NC4=O)C5)CC3)cn1)C2 (stereo partly drawn) [Example 63, 3-(6-(4-((6-(((6aR,8R)-2-(3,5-difluoro-2-hydroxyphenyl)-6a-ethyl-5,6,6a,7,8,9-hexahydropyrrolo[1′,2′:4,5]pyrazino[2,3-c]pyridazin-8-yl)oxy)pyridin-3-yl)methyl)piperazin-1-yl)-1-oxoisoindolin-2-yl)piperidine-2,6-dione] |
| < 0.1 µM | > 75% | < 0.1 µM | 50 to 75% | Cc1nc(CN2CCN(c3ccc4c(c3)C(=O)N([C@H]3CCC(=O)NC3=O)C4)CC2)cnc1O[C@H]1CN2c3cc(-c4cccc(F)c4O)nnc3NC[C@]2(CF)C1 [Example 66, (S)-3-(6-(4-((5-(((6aS,8R)-2-(3-fluoro-2-hydroxyphenyl)-6a-(fluoromethyl)-5,6,6a,7,8,9-hexahydropyrrolo[1′,2′:4,5]pyrazino[2,3-c]pyridazin-8-yl)oxy)-6-methylpyrazin-2-yl)methyl)piperazin-1-yl)-1-oxoisoindolin-2-yl)piperidine-2,6-dione] |
| < 0.1 µM | > 75% | < 0.1 µM | > 75% | Cc1c(O[C@H]2CN3c4cc(-c5cccc(F)c5O)nnc4NC[C@]3(C(F)F)C2)cnc(CN2CCN(c3ccc4c(c3)C(=O)N([C@H]3CCC(=O)NC3=O)C4)CC2)c1C [Example 46, (S)-3-(6-(4-((5-(((6aS,8R)-6a-(difluoromethyl)-2-(3-fluoro-2-hydroxyphenyl)-5,6,6a,7,8,9-hexahydropyrrolo [1′,2′:4,5]pyrazino[2,3-c]pyridazin-8-yl)oxy)-3,4-dimethylpyridin-2-yl)methyl)piperazin-1-yl)-1-oxoisoindolin-2-yl)piperidine-2,6-dione] |
| < 0.1 µM | > 75% | 0.1 to 1 µM | < 50% | Cc1nc(O[C@H]2CN3c4cc(-c5cccc(F)c5O)nnc4NC[C@]3(C(F)F)C2)nc(C)c1CN1CCN(c2ccc3c(c2)C(=O)N(C2CCC(=O)NC2=O)C3)CC1 (stereo partly drawn) [Example 41, 3-(6-(4-((2-(((6aS,8R)-6a-(Difluoromethyl)-2-(3-fluoro-2-hydroxy-phenyl)-5,6,6a,7,8,9-hexahydropyrrolo [1′,2′:4,5]pyrazino[2,3-c]pyridazin-8-yl)oxy)-4,6-dimethylpyrimidin-5-yl)methyl)piperazin-1-yl)-1-oxoisoindolin-2-yl)piperidine-2,6-dione] |
| < 0.1 µM | > 75% | 0.1 to 1 µM | < 50% | CC[C@@]12CNc3nnc(-c4cccc(F)c4O)cc3N1C[C@H](Oc1cc(C)c(CN3CCC(c4ccc5c(c4)C(=O)N(C4CCC(=O)NC4=O)C5)CC3)cn1)C2 (stereo partly drawn) [Example 106, 3-(6-(1-((6-(((6aR,8R)-6a-ethyl-2-(3-fluoro-2-hydroxyphenyl)-5,6,6a,7,8,9-hexahydropyrrolo[1′,2′:4,5]pyrazino[2,3-c]pyridazin-8-yl)oxy)-4-methylpyridin-3-yl)methyl)piperidin-4-yl)-1-oxoisoindolin-2-yl)piperidine-2,6-dione] |
| < 0.1 µM | > 75% | < 0.1 µM | > 75% | Cc1cc(CN2CCN(c3ccc4c(c3)C(=O)N([C@H]3CCC(=O)NC3=O)C4)CC2)cnc1O[C@H]1CN2c3cc(-c4cccc(F)c4O)nnc3NC[C@]2(C)C1 [Example 83, (S)-3-(6-(4-((6-(((6aS,8R)-2-(3-fluoro-2-hydroxyphenyl)-6a-methyl-5,6,6a,7,8,9-hexahydropyrrolo[1′,2′:4,5]pyrazino[2,3-c]pyridazin-8-yl)oxy)-5-methylpyridin-3-yl)methyl)piperazin-1-yl)-1-oxoisoindolin-2-yl)piperidine-2,6-dione] |
